Reference: PubChem BioAssay AID218 (DTP/NCI, 2004)
Several values for one entry are separate records, joined by “and”; a condition that tells them apart may be missing. Identical values can stand only once. Starred links: 1 amine or outer side, 2 acyl side, 3 side chain; linkers in the order of their positions; H or OH if unused. Positions of bridges follow the written chain, without caps; N, C: chain ends. Non-standard residues stand in square brackets, D forms with d. Residues, ends and D or L forms follow the SMILES beside them. Chains are numbered I, II in the order given. Actinocin(9to1) = Cc1c2oc3c(C)ccc(C(=O)[*:1])c3nc-2c(C(=O)[*:2])c(N)c1=O; aThr = C[C@H](O)[C@H](N)C(=O)O; NMeV = CN[C@H](C(=O)O)C(C)C; Sar = CNCC(=O)O

Tested on: C57BL/6 mice, Adenocarcinoma 755 sc, tumor weight T/C
Test: NCI In Vivo Anticancer Drug Screen. Data for tumor model Adenocarcinoma 755 (subcutaneous) in C57BL/6 mice
Settings: endpoint: mean tumor weight, higher = larger tumour
Method: The antitumor activity of compounds was measured in mice bearing transplantable tumors. Survival or tumor size were measured and the results are expressed as the measurement made in the treated group (T) divided by the measurement made in the vehicle treated control group (C). The tumor model used in this assay is Adenocarcinoma 755 (subcutaneous) in C57BL/6 mice

[1] = dose: 50.0 mg/kg/injection, schedule: Q01DX011 (ip), vehicle: saline
[2] = dose: 2.5 mg/kg/injection, schedule: Q01DX011 (ip), vehicle: carboxymethylcellulose (CMC)
[3] = dose: 10.0 mg/kg/injection, schedule: Q01DX011 (ip), vehicle: saline
[4] = dose: 15.0 mg/kg/injection, schedule: Q01DX011 (ip), vehicle: saline
[5] = dose: 20.0 mg/kg/injection, schedule: Q01DX011 (ip), vehicle: saline
[6] = dose: 40.0 mg/kg/injection, schedule: Q01DX011 (ip), vehicle: saline
[7] = dose: 50.0 mg/kg/injection, schedule: Q01DX011 (ip), vehicle: carboxymethylcellulose (CMC)
[8] = dose: 2.5 mg/kg/injection, schedule: Q01DX011 (ip), vehicle: saline
[9] = dose: 5.0 mg/kg/injection, schedule: Q01DX011 (ip), vehicle: saline
[10] = dose: 6.0 mg/kg/injection, schedule: Q01DX011 (ip), vehicle: carboxymethylcellulose (CMC)
[11] = dose: 10.0 mg/kg/injection, schedule: Q02DX006 (ip), vehicle: other
[12] = dose: 100.0 mg/kg/injection, schedule: Q01DX011 (ip), vehicle: saline
[13] = dose: 200.0 mg/kg/injection, schedule: Q01DX011 (ip), vehicle: saline
[14] = dose: 100.0 mg/kg/injection, schedule: Q01DX011 (ip), vehicle: carboxymethylcellulose (CMC)
[15] = dose: 25.0 mg/kg/injection, schedule: Q01DX011 (ip), vehicle: carboxymethylcellulose (CMC)

O=C(O)C(=O)CF
T/C [1]: 63 % of control

CN(C)C1C(=O)C(C(N)=O)=C(O)C2(O)C(=O)C3=C(O)c4c(O)cccc4C(C)(O)C3C(O)C12 (stereo unspecified)
T/C (dose: 125.0 mg/kg/injection, schedule: Q02DX006 (ip), vehicle: water): 58 % of control | T/C (dose: 150.0 mg/kg/injection, schedule: Q02DX006 (ip), vehicle: water): 106 % of control

CSc1ncnc2nc[nH]c12
T/C (dose: 1.25 mg/kg/injection, schedule: Q01DX011 (ip), vehicle: carboxymethylcellulose (CMC)): 16 % of control | T/C [2]: 8 % of control | T/C (dose: 7.5 mg/kg/injection, schedule: Q01DX011 (ip), vehicle: saline): 58 % of control | T/C [3]: 23 % of control | T/C [4]: 2 % of control | T/C [5]: 6 % of control and 9 % of control | T/C (dose: 30.0 mg/kg/injection, schedule: Q01DX011 (ip), vehicle: carboxymethylcellulose (CMC)): 5 % of control | T/C (dose: 30.0 mg/kg/injection, schedule: Q01DX011 (ip), vehicle: saline): 1 % of control and 2 % of control and 9 % of control | T/C (dose: 40.0 mg/kg/injection, schedule: Q01DX011 (ip), vehicle: carboxymethylcellulose (CMC)): 2 % of control | T/C [6]: 3 % of control | T/C [7]: 3 % of control

Clc1nc(Cl)c2[nH]cnc2n1
T/C [5]: 110 % of control | T/C [6]: 82 % of control

CC(C)C(=O)OCC1OC(n2cnc3c(=S)nc(N)[nH]c32)C(OC(=O)C(C)C)C1OC(=O)C(C)C (stereo unspecified)
T/C (dose: 1.5 mg/kg/injection, schedule: Q01DX011 (ip), vehicle: saline): 68 % of control | T/C (dose: 3.0 mg/kg/injection, schedule: Q01DX011 (ip), vehicle: saline): 25 % of control

[I][Hg][CH2]C1OCCOC1[CH2][Hg][I] (stereo unspecified)
T/C (dose: 4.0 mg/kg/injection, schedule: Q01DX011 (ip), vehicle: carboxymethylcellulose (CMC)): 84 % of control | T/C (dose: 8.0 mg/kg/injection, schedule: Q01DX011 (ip), vehicle: carboxymethylcellulose (CMC)): 46 % of control | T/C (dose: 16.0 mg/kg/injection, schedule: Q01DX011 (ip), vehicle: carboxymethylcellulose (CMC)): 34 % of control | T/C (dose: 32.0 mg/kg/injection, schedule: Q01DX011 (ip), vehicle: carboxymethylcellulose (CMC)): 44 % of control

S=c1nc[nH]c2nc[nH]c12
T/C (dose: 1.5 mg/kg/injection, schedule: Q01DX011 (ip), vehicle: carboxymethylcellulose (CMC)): 26 % of control | T/C [2]: 7 % of control | T/C [8]: 4 % of control | T/C [9]: 8 % of control and 13 % of control | T/C (dose: 5.0 mg/kg/injection, schedule: Q01DX011 (oral), vehicle: carboxymethylcellulose (CMC)): 1 % of control | T/C [10]: 4 % of control | T/C [11]: 2 % of control | T/C [4]: 6 % of control | T/C (dose: 20.0 mg/kg/injection, schedule: Q01DX011 (ip), vehicle: carboxymethylcellulose (CMC)): 2 % of control | T/C (dose: 20.0 mg/kg/injection, schedule: Q01DX011 (oral), vehicle: alkali diluted with saline): 2 % of control | T/C (dose: 20.0 mg/kg/injection, schedule: Q02DX006 (ip), vehicle: other): 2 % of control | T/C (dose: 30.0 mg/kg/injection, schedule: Q02DX006 (ip), vehicle: other): 3 % of control | T/C (dose: 40.0 mg/kg/injection, schedule: Q01DX011 (oral), vehicle: alkali diluted with saline): 2 % of control | T/C (dose: 80.0 mg/kg/injection, schedule: Q01DX011 (oral), vehicle: alkali diluted with saline): 1 % of control | T/C (dose: 320.0 mg/kg/injection, schedule: Q01DX001 (oral), vehicle: alkali diluted with saline): 11 % of control | T/C (dose: 320.0 mg/kg/injection, schedule: Q03DX004 (oral), vehicle: alkali diluted with saline): 1 % of control | T/C (dose: 320.0 mg/kg/injection, schedule: Q07DX002 (oral), vehicle: alkali diluted with saline): 5 % of control | T/C (dose: 480.0 mg/kg/injection, schedule: Q01DX001 (oral), vehicle: alkali diluted with saline): 8 % of control | T/C (dose: 480.0 mg/kg/injection, schedule: Q07DX002 (oral), vehicle: alkali diluted with saline): 4 % of control | T/C (dose: 640.0 mg/kg/injection, schedule: Q01DX001 (oral), vehicle: alkali diluted with saline): 9 % of control | T/C (dose: 640.0 mg/kg/injection, schedule: Q07DX002 (oral), vehicle: alkali diluted with saline): 2 % of control | T/C (dose: 960.0 mg/kg/injection, schedule: Q01DX001 (oral), vehicle: alkali diluted with saline): 11 % of control

O=C1C(NC(=O)C2CCCCC2)=C(N2CC2)C(=O)C(NC(=O)C2CCCCC2)=C1N1CC1
T/C (dose: 16.0 mg/kg/injection, schedule: Q01DX009 (ip), vehicle: saline): 97 % of control | T/C (dose: 32.0 mg/kg/injection, schedule: Q01DX009 (ip), vehicle: saline): 56 % of control | T/C (dose: 64.0 mg/kg/injection, schedule: Q01DX009 (ip), vehicle: saline): 83 % of control

S=c1[nH]c(=S)c2[nH]cnc2[nH]1
T/C [12]: 13 % of control | T/C [13]: 7 % of control

Nc1nc(SCc2ccccc2)c2[nH]cnc2n1
T/C [8]: 17 % of control | T/C [9]: 5 % of control | T/C [3]: 2 % of control

CC1CN1P(=S)(N1CC1C)N1CC1C (stereo unspecified)
T/C (dose: 1.25 mg/kg/injection, schedule: Q01DX011 (ip), vehicle: saline): 67 % of control | T/C [8]: 78 % of control | T/C [9]: 91 % of control | T/C [3]: 73 % of control

O=c1cn[nH]c(=O)[nH]1
T/C [14]: 159 % of control | T/C (dose: 200.0 mg/kg/injection, schedule: Q01DX011 (ip), vehicle: carboxymethylcellulose (CMC)): 110 % of control

Clc1ncnc2nc[nH]c12
T/C (dose: 37.5 mg/kg/injection, schedule: Q01DX011 (ip), vehicle: saline): 1 % of control

O=[N+]([O-])c1ccc(CSc2ncnc3nc[nH]c23)cc1
T/C [12]: 4 % of control

Clc1cc(N2CC2)nc(N2CC2)n1
T/C (dose: 5.0 mg/kg/injection, schedule: Q02DX006 (ip), vehicle: other): 79 % of control | T/C (dose: 7.5 mg/kg/injection, schedule: Q02DX006 (ip), vehicle: other): 72 % of control | T/C [11]: 18 % of control

Oc1ccc2ccccc2c1N=Nc1ccc(F)cc1
T/C (dose: 6.25 mg/kg/injection, schedule: Q01DX011 (ip), vehicle: saline): 55 % of control | T/C (dose: 12.5 mg/kg/injection, schedule: Q01DX011 (ip), vehicle: saline): 45 % of control | T/C (dose: 25.0 mg/kg/injection, schedule: Q01DX011 (ip), vehicle: saline): 37 % of control | T/C [1]: 30 % of control and 35 % of control | T/C [12]: 28 % of control | T/C [13]: 12 % of control | T/C (dose: 400.0 mg/kg/injection, schedule: Q01DX011 (ip), vehicle: saline): 28 % of control

CCOC(=O)n1cnc2ncnc(N)c21
T/C [15]: 56 % of control | T/C (dose: 75.0 mg/kg/injection, schedule: Q01DX011 (ip), vehicle: carboxymethylcellulose (CMC)): 104 % of control

CCCCNc1nc(N)nc2nc[nH]c12
T/C (dose: 5.0 mg/kg/injection, schedule: Q01DX011 (ip), vehicle: carboxymethylcellulose (CMC)): 106 % of control | T/C (dose: 10.0 mg/kg/injection, schedule: Q01DX011 (ip), vehicle: carboxymethylcellulose (CMC)): 104 % of control | T/C [15]: 123 % of control | T/C [7]: 78 % of control | T/C [14]: 72 % of control

N=[N+]=CC(=O)OCC(N)C(=O)O (stereo unspecified)
T/C (dose: 4.0 mg/kg/injection, schedule: Q01DX011 (ip), vehicle: saline): 31 % of control | T/C (dose: 8.0 mg/kg/injection, schedule: Q01DX011 (ip), vehicle: saline): 46 % of control

NNC(=O)c1nsnc1NC(N)=O
T/C [10]: 109 % of control | T/C (dose: 11.0 mg/kg/injection, schedule: Q01DX011 (ip), vehicle: carboxymethylcellulose (CMC)): 107 % of control | T/C (dose: 22.0 mg/kg/injection, schedule: Q01DX011 (ip), vehicle: carboxymethylcellulose (CMC)): 99 % of control

C=CC(COC(C)=O)N1CC1 (stereo unspecified)
T/C (dose: 1.87 mg/kg/injection, schedule: Q01DX011 (oral), vehicle: saline): 107 % of control | T/C (dose: 3.75 mg/kg/injection, schedule: Q01DX011 (oral), vehicle: saline): 56 % of control | T/C (dose: 7.5 mg/kg/injection, schedule: Q01DX011 (oral), vehicle: saline): 70 % of control and 80 % of control

Cc1c2oc3c(C)ccc(C(=O)N[C@@H]4C(=O)N[C@H](C(C)C)C(=O)N5CCC[C@H]5C(=O)N(C)CC(=O)N(C)[C@@H](C(C)C)C(=O)O[C@H]4C)c3nc-2c(C(=O)N[C@@H]2C(=O)N[C@H](C(C)C)C(=O)N3CCC[C@H]3C(=O)N(C)CC(=O)N(C)[C@@H](C(C)C)C(=O)O[C@H]2C)c(N)c1=O (I: [aThr][dV]P[Sar][NMeV] / II: [aThr][dV]P[Sar][NMeV]; ester I:1-I:C, II:1-II:C; linker I:N-II:N via Actinocin(9to1))
T/C (dose: 0.03 mg/kg/injection, schedule: Q01DX011 (ip), vehicle: saline): 3 % of control
